Like-named read-outs stand apart in the source and are kept apart here.
Assays:
[1] = system: Cellulolytic Enzyme Composition #1; assay: mini-plate-scale AVICEL hydrolysis by Cellulolytic Enzyme Composition #1; format: biochemical, Trichoderma reesei; conditions: for Effect on hydrolysis (in words) / Effect on enzymatic cellulolysis: gain in initial rate / Effect on enzymatic cellulolysis: gain in extended hydrolysis extent / Effect on enzymatic cellulolysis: loss in initial rate / Effect on enzymatic cellulolysis: loss in extended hydrolysis extent: 10 mM; for Effect on enzymatic cellulolysis: gain in initial rate / Effect on enzymatic cellulolysis: gain in extended hydrolysis extent / Effect on enzymatic cellulolysis: loss in initial rate / Effect on enzymatic cellulolysis: loss in extended hydrolysis extent: 25 g AVICEL and 0.25 g enzyme per liter, pH 5, 50° C.; for Effect on enzymatic cellulolysis: gain in extended hydrolysis extent / Effect on enzymatic cellulolysis: loss in extended hydrolysis extent: after 4 days; for IC50: AVICEL hydrolysis, 0.2 to 2 mM inhibitor
Description: Various (biologically common) divalent metal cations with variable ionic radii were tested in 2.8 ml Deep Well Microplates (VWR International, West Chester, Pa., USA) (“mini-plate-scale”) containing 1 ml suspensions of 25 g of AVICEL® per liter in 50 mM sodium acetate pH 5 at 50° C. Cellulolytic Enzyme Composition #1 was added at 0.25 g per liter for each hydrolysis. The mini-plates were sealed at 160° C. for 2 seconds using an ABGENE® ALPS 300™ sealer (ABgene, Rochester, N.Y., USA). The sealed mini-plates were incubated at 50° C. in an INNOVA® 4080 incubator shaker at 150 rpm. Soluble reducing sugars were measured by HPLC as described in Example 30.
Iron-chelator complexes of variable size or redox property were tested for their ability to inhibit enzymatic hydrolysis of cellulose. […]

[2] = cited from earlier work; for Radius: ionic radii in crystals, 6-ligand coordination
[3] = single-electron redox potential vs NHE
[4] = read-out: I50 estimated based on limited data
[5] = single-electron oxidation potential of iron-chelator complexes

Molecule | Effect on hydrolysis (in words) [1] | Effect on enzymatic cellulolysis: gain in initial rate [1] | Effect on enzymatic cellulolysis: gain in extended hydrolysis extent [1] | Radius [2] [Å] | E° [2, 3] [V] | Effect on enzymatic cellulolysis: loss in initial rate [1] | Effect on enzymatic cellulolysis: loss in extended hydrolysis extent [1] | E° ([2]; 2-electron E° (in parenthesis)) | IC50 [1, 4] [mM] | IC50 ([1]; read-out: I50) [mM] | E° [2, 5] | Effect on hydrolysis over concentration range ([1]; 0.1 to 10 mM)
[Ca+2].[Cl-].[Cl-] [Ca(II), CaCl2] | slight enhancement | ~20% gain in initial rate, ~20% gain in extended hydrolysis extent | ~20% gain in initial rate, ~20% gain in extended hydrolysis extent | 1.00 | −0.96 | – | – | – | – | – | – | –
O=S(=O)([O-])[O-].[Co+2] [Co(II), CoSO4] | slight or moderate inhibition | – | – | 0.65 | – | ~10% | no change | (−0.28) V | – | – | – | –
[Cl][Cr]([Cl])[Cl] [Cr(III), CrCl3] | moderate | – | – | 0.62 | −0.407 | ~40% loss in initial rate, ~40% loss in extended hydrolysis extent | ~40% loss in initial rate, ~40% loss in extended hydrolysis extent | – | > 10 | – | – | –
O=S(=O)([O-])[O-].[Cu+2] [Cu(II), CuSO4] | – | – | – | 0.73 | 0.153 | ~90% | ~80% | – | – | 0.2 | – | –
O=C([O-])CN(CCN(CC(=O)[O-])CC(=O)[O-])CC(=O)[O-].[Fe+2].[Na+].[Na+] [Fe(II)Na2EDTA, FeNa2EDTA] | – | – | – | – | – | ~80% loss in initial rate, ~80% loss in extended hydrolysis extent | ~80% loss in initial rate, ~80% loss in extended hydrolysis extent | – | < 10 | – | (=Fe(III)NaEDTA's) | –
O=C([O-])CN(CCN(CC(=O)[O-])CC(=O)[O-])CC(=O)[O-].[Fe+3].[Na+] [Fe(III)NaEDTA, FeNa(EDTA)] | – | – | – | – | – | ~10% | ~20% | – | ~10 | – | 0.13^2 V | –
[Cl-].[Cl-].[Mg+2] [Mg(II), MgCl2] | slight enhancement | ~20% gain in initial rate, ~20% gain in extended hydrolysis extent | ~20% gain in initial rate, ~20% gain in extended hydrolysis extent | 0.72 | −0.33 | – | – | – | – | – | – | –
O=S(=O)([O-])[O-].[Mn+2] [Mn(II), MnSO4] | slight or moderate inhibition | – | – | 0.67 | – | ~10% | no change | (−1.185) V | – | – | – | no effect
[Cl][Ni][Cl] [Ni(II), NiCl2] | slight or moderate inhibition | – | – | 0.69 | −1.56 | ~20% | ~10% | – | – | – | – | –
[Cl][Ru]([Cl])[Cl] [Ru(III), RuCl3] | pronounced | – | – | 0.68 | 0.249 | ~90% | ~80% | – | – | 0.15 | – | –
O=S(=O)([O-])[O-].[Zn+2] [Zn(II), ZnSO4] | slight or moderate inhibition | – | – | 0.74 | −2.3 | ~20% loss in initial rate, ~20% loss in extended hydrolysis extent | ~20% loss in initial rate, ~20% loss in extended hydrolysis extent | – | – | – | – | –
Fe(2,2′-bipyridyl)3Cl2 [Fe(II)(2,2′BP)2Cl2] | – | – | – | – | – | ~40% loss in initial rate, ~40% loss in extended hydrolysis extent | ~40% loss in initial rate, ~40% loss in extended hydrolysis extent | – | – | 20 | – | –
Fe(2,2′-bipyridyl)3Cl3 [Fe(III)(2,2′BP)2Cl3] | – | – | – | – | – | ~100% loss in initial rate, ~100% loss in extended hydrolysis extent | ~100% loss in initial rate, ~100% loss in extended hydrolysis extent | – | – | 0.6 ± 0.1 | 0.78 V | –
quinone [reference compound] | – | – | – | – | – | – | – | – | ~5 | – | – | –
